{"source": "patent US20250288575A1", "about": "“EYE DROP COMPOSITION FOR PREVENTION OR TREATMENT OF OPHTHALMIC DISEASES AND PREPARATION METHOD THEREFOR” (OCUMENSION THERAPEUTICS (SUZHOU) CO., LTD., priority 2021, published 2025)", "experiment": "Antimicrobial efficacy testing (AET) of atropine sulfate eye drops (0.01%) with different BAK concentrations", "description": "The concentration of benzalkonium chloride (BAK) in atropine sulfate eye drops was verified via antimicrobial efficacy testing (AET). The lyophilized preparation was reconstituted with 8 mL of reconstituted diluent including BAK at concentrations of 100 ppm, 80 ppm, 50 ppm, 25 ppm, or 0 ppm to obtain atropine sulfate eye drops (0.01%) including benzalkonium chloride at different concentrations.", "key": {"[1]": {"conditions": "BAK 0 ppm in atropine sulfate eye drops (0.01%)"}, "[2]": {"conditions": "BAK 25 ppm in atropine sulfate eye drops (0.01%)"}, "[3]": {"conditions": "BAK 50 ppm in atropine sulfate eye drops (0.01%)"}, "[4]": {"conditions": "BAK 80 ppm in atropine sulfate eye drops (0.01%)"}, "[5]": {"conditions": "BAK 100 ppm in atropine sulfate eye drops (0.01%)"}}}
{"substance": "benzalkonium chloride [BAK]", "values": [{"measurement": "AET, Chinese Pharmacopoeia Method, Criteria A&B", "setting": "[1]", "result": "Fail"}, {"measurement": "AET, European Pharmacopoeia Method, Criteria A&B", "setting": "[1]", "result": "Fail"}, {"measurement": "AET, United States Pharmacopeia Method", "setting": "[1]", "result": "Fail"}, {"measurement": "AET, Chinese Pharmacopoeia Method, Criteria A&B", "setting": "[2]", "result": "Pass"}, {"measurement": "AET, European Pharmacopoeia Method, Criteria A&B", "setting": "[2]", "result": "Pass"}, {"measurement": "AET, United States Pharmacopeia Method", "setting": "[2]", "result": "Pass"}, {"measurement": "AET, Chinese Pharmacopoeia Method, Criteria A&B", "setting": "[3]", "result": "Pass"}, {"measurement": "AET, European Pharmacopoeia Method, Criteria A&B", "setting": "[3]", "result": "Pass"}, {"measurement": "AET, United States Pharmacopeia Method", "setting": "[3]", "result": "Pass"}, {"measurement": "AET, Chinese Pharmacopoeia Method, Criteria A&B", "setting": "[4]", "result": "Pass"}, {"measurement": "AET, European Pharmacopoeia Method, Criteria A&B", "setting": "[4]", "result": "Pass"}, {"measurement": "AET, United States Pharmacopeia Method", "setting": "[4]", "result": "Pass"}, {"measurement": "AET, Chinese Pharmacopoeia Method, Criteria A&B", "setting": "[5]", "result": "Pass"}, {"measurement": "AET, European Pharmacopoeia Method, Criteria A&B", "setting": "[5]", "result": "Pass"}, {"measurement": "AET, United States Pharmacopeia Method", "setting": "[5]", "result": "Pass"}, {"measurement": "results of the antibacterial efficacy testing", "setting": "all tested BAK concentrations (100, 80, 50, 25 ppm) except 0 ppm", "result": "met the criteria"}, {"measurement": "antibacterial efficacy criteria \"A\", Chinese Pharmacopoeia, during long-term storage", "setting": "benzalkonium chloride concentration greater than 70 ppm", "result": "criteria requirements of antibacterial efficacy “A” were met"}]}
